Experimental data from ChEMBL document CHEMBL1275320, “Positive allosteric modulators of the α-amino-3-hydroxy-5-methyl-4-isoxazolepropionic acid (AMPA) receptor” (J Med Chem, 2010).
Several values for one entry are separate records, joined by “and”; a condition that tells them apart may be missing. Identical values can stand only once.

Experiments:
[1] = molecular target: Glutamate receptor AMPA 3/4 (Homo sapiens, UniProt P42263+P48058); assay: Inhibition of GluR3/4 expressed in Xenopus oocyte
[2] = Agonist activity at rat AMPA receptor assessed as AMPA-induced calcium uptake; format: functional
[3] = Agonist activity at AMPA receptor in rat cortical neurons assessed as change in increase in AMPA current; format: functional
Glutamate receptor 4 [4] = molecular target: Glutamate receptor 4 (Homo sapiens, UniProt P48058); assay: Inhibition of GluR4 expressed in HEK293 cells; format: cell-based
[5] = Agonist activity at AMPA receptor at 30 uM by FLIPR assay; format: functional
Glutamate receptor 2 [6] = molecular target: T1, Glutamate receptor 2 (Homo sapiens, UniProt P42262); assay: Inhibition of human recombinant GluR2
Glutamate receptor 3 = Glutamate receptor 3 (Homo sapiens, UniProt P42263); assay: Inhibition of GluR3 expressed in HEK cells; format: cell-based, HEK293
Glutamate receptor 2 [7] = molecular target: T1, Glutamate receptor 2; assay: Agonist activity at GluR2 receptor; format: functional
[8] = Agonist activity at AMPA receptor by FLIPR assay; format: functional
Glutamate receptor 2 [9] = molecular target: T1, Glutamate receptor 2; assay: Inhibition of GluR2 flop expressed in HEK cells; format: cell-based, HEK293
Glutamate receptor 1 = Glutamate receptor 1 (Homo sapiens, UniProt P42261); assay: Inhibition of GluR1 expressed in HEK cells; format: cell-based, HEK293
Rattus norvegicus = species on record: Rattus norvegicus; assay: Agonist activity at rat AMPA receptor assessed as change in EPSC amplitude; format: functional
[10] = molecular target: Glutamate receptor AMPA 3/4 (Rattus norvegicus, UniProt P19492+P19493); assay: Inhibition of GluR3/4 rat in hippocampal neuron; format: tissue-based, Hippocampus
Glutamate receptor 2 [11] = molecular target: T1, Glutamate receptor 2; assay: Inhibition of GluR2 expressed in HEK cells at 3 uM; format: cell-based; conditions: HEK293
Glutamate receptor 4 [12] = molecular target: Glutamate receptor 4 (Rattus norvegicus, UniProt P19493); assay: Inhibition of rat recombinant GluR4 in cells
Sequence of Glutamate receptor 4 (Rattus norvegicus, UniProt P19493) (P19493 whole entry): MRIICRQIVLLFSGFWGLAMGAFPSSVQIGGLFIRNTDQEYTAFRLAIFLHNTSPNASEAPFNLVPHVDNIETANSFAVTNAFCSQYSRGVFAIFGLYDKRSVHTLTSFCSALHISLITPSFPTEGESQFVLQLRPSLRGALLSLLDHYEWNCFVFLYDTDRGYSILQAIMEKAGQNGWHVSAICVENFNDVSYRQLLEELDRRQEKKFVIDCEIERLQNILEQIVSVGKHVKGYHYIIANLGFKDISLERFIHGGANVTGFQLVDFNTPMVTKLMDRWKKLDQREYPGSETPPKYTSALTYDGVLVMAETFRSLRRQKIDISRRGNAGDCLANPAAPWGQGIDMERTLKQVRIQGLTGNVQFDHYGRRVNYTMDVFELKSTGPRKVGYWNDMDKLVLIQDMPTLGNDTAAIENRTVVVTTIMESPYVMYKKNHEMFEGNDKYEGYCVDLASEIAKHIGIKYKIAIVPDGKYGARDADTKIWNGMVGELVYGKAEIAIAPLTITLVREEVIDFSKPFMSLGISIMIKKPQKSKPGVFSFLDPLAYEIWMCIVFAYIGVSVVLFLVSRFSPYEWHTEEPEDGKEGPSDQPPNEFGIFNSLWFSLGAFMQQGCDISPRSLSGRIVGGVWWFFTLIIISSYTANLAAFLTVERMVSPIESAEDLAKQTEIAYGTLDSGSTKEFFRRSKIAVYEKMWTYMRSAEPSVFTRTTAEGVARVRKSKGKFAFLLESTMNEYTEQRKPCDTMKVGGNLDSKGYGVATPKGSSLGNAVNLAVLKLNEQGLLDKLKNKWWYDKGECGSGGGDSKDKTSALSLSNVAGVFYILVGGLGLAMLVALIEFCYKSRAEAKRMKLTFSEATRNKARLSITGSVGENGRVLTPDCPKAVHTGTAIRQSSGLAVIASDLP

Sequence of Glutamate receptor AMPA 3/4 (Homo sapiens, UniProt P42263+P48058) (P48058 whole entry): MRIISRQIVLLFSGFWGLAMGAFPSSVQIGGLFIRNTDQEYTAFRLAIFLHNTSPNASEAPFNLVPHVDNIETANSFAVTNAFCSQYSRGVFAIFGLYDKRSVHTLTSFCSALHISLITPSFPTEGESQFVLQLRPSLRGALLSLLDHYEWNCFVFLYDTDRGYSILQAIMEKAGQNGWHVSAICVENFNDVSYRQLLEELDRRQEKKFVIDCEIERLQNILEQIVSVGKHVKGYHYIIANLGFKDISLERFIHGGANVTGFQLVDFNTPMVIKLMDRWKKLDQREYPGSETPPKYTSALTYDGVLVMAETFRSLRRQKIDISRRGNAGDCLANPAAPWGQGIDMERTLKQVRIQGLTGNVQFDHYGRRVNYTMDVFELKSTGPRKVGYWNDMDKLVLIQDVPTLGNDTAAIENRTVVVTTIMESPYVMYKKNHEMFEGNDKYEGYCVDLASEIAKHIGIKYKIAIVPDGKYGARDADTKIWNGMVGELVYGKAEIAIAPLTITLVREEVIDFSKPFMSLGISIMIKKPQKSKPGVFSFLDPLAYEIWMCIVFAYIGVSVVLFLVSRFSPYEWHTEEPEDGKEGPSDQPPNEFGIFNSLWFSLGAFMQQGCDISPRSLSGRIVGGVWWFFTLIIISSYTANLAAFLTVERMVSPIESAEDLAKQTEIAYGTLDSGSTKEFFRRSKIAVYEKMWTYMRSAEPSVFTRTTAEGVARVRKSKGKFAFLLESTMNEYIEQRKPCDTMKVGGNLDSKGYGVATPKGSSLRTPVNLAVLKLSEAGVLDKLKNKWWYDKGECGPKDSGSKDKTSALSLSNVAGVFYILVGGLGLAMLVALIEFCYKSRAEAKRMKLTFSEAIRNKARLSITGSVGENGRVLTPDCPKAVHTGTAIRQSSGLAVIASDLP
Sequence of Glutamate receptor AMPA 3/4 (Homo sapiens, UniProt P42263+P48058) (P42263 whole entry): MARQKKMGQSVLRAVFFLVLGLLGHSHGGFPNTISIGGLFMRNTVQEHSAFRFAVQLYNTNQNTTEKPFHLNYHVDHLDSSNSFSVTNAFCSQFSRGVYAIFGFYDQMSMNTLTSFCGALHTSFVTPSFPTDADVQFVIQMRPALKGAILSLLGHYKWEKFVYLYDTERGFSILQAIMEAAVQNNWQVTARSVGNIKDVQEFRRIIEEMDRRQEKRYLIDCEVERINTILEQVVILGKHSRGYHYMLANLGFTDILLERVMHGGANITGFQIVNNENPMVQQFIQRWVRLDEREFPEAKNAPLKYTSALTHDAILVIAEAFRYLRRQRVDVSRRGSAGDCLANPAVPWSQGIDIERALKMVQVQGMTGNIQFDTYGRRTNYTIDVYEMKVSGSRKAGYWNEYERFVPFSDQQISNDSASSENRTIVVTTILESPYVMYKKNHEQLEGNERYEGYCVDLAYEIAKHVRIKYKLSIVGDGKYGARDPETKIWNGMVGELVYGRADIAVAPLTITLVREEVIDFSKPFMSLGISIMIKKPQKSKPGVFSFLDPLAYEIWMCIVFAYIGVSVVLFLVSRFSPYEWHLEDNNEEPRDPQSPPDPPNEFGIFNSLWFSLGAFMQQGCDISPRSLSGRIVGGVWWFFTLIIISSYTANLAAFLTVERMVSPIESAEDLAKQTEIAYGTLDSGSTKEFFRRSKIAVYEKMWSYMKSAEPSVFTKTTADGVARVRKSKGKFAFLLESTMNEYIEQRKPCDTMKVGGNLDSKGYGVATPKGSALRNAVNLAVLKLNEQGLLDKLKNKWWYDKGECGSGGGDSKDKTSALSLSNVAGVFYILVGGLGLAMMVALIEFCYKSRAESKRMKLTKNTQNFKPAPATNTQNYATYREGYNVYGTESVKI
Sequence of Glutamate receptor 4 (Homo sapiens, UniProt P48058) (P48058 whole entry): as the sequence (P48058 whole entry) above
T1 sequence (P42262 whole entry): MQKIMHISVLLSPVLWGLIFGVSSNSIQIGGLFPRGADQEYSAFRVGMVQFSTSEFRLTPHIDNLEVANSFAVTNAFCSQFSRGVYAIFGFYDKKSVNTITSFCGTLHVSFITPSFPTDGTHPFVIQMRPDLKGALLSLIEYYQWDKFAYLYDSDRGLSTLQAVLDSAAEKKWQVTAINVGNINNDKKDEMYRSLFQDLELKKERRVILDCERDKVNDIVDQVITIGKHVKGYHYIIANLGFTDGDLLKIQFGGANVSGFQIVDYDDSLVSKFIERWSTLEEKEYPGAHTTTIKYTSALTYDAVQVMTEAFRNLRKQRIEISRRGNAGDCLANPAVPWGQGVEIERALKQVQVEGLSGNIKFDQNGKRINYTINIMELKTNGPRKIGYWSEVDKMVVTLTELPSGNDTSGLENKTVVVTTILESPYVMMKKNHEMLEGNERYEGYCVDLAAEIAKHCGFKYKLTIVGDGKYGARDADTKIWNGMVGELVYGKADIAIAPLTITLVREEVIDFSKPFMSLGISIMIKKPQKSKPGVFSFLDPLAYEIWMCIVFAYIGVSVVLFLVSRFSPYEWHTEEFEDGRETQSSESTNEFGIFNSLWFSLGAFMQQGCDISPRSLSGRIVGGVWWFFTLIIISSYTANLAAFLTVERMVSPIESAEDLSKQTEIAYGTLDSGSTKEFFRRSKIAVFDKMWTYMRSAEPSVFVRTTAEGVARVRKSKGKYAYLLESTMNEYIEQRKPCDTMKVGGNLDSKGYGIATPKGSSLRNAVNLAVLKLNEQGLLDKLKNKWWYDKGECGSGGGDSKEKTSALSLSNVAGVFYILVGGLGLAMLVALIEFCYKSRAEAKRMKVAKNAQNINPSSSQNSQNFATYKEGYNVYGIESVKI
Sequence of Glutamate receptor 1 (P42261 whole entry): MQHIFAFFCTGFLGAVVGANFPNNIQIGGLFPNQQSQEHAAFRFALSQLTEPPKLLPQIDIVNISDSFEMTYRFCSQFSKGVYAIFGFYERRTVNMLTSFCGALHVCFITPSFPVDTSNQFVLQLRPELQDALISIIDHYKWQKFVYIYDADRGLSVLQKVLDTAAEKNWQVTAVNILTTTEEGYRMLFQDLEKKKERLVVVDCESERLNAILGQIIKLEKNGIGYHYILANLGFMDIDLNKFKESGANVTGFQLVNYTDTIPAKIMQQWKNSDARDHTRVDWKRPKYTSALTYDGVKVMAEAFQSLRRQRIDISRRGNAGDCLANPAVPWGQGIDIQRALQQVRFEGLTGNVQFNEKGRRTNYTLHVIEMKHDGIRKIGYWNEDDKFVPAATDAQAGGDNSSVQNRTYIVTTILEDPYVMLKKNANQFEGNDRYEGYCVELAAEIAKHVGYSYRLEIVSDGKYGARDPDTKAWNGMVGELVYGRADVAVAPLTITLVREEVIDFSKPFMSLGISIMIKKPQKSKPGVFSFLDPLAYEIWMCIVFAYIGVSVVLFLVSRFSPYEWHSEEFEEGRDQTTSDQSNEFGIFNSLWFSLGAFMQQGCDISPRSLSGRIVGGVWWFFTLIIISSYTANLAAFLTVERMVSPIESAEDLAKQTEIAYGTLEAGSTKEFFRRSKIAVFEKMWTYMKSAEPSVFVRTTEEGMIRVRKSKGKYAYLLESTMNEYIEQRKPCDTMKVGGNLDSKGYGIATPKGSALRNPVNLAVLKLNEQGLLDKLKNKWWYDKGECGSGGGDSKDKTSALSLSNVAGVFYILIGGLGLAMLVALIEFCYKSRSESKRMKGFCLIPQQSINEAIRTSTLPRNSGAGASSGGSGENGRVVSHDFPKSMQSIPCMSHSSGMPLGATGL
Sequence of Glutamate receptor 3 (P42263 whole entry): as the sequence (P42263 whole entry) above

## COc1ccc(C(=O)N2CCCC2=O)cc1
[1]
  EC50: > 1000 µM
[2]
  EC50: > 100 µM

## O=C1c2cc3nnn(CCc4cccc(F)c4)c(=O)c3cc2OCN1C1CC1
[3]
  EC2: 0.1 µM

## NS(=O)(=O)c1cc2c(cc1Cl)NC(C1CC3C=CC1C3)NS2(=O)=O (stereo unspecified) [CYCLOTHIAZIDE]
[3]
  EC2: 1.6 µM

## CC(C)S(=O)(=O)N[C@@H]1CCC[C@@H]1c1ccc(I)cc1
Glutamate receptor 4 [4]
  EC50: 0.23 µM

## CN(C)C(=O)c1ccc(-n2nc(C(F)(F)F)c3c2CCOC3)cc1
[5]
  Activity: 14%
Glutamate receptor 2 [6]
  EC50: < 300 µM

## O=C(c1ccc2nonc2c1)N1CCCCC1 [FARAMPATOR]
[1]
  EC50: 14 µM

## CC(C)S(=O)(=O)NC[C@H](C)c1ccc(-c2ccc(CCNS(C)(=O)=O)cc2)cc1 [MIBAMPATOR]
Glutamate receptor 4 [4]
  EC50: 0.15 µM

## CC(CNS(=O)(=O)C(C)C)c1ccc(-c2ccc(C#N)cc2)cc1 (stereo unspecified)
Glutamate receptor 3
  EC50: 1.66 µM
Glutamate receptor 2 [7]
  EC50: 0.15 µM
[8]
  EC50: 0.29 µM
Glutamate receptor 2 [9]
  EC50: 1.44 µM
Glutamate receptor 1
  EC50: 5.65 µM

## COCc1cccc(C(=O)N2CCCCC2)c1
Rattus norvegicus
  Activity: 25%

## CC(C)S(=O)(=O)NCCCCCCCNS(=O)(=O)C(C)C
Glutamate receptor 1
  EC50: 2.88 µM

## CC(C)S(=O)(=O)N[C@@H]1CN(C)C[C@@H]1c1ccc(-c2ccc(N(C)S(C)(=O)=O)cc2)cc1
Glutamate receptor 2 [6]
  EC50: 1.6 µM

## CC(C)S(=O)(=O)N[C@H]1Cc2ccc(-n3nc(C(F)(F)F)c4c3CCCC4)cc2C1
Glutamate receptor 2 [6]
  EC50: < 300 µM

## C[C@@H](CNS(C)(=O)=O)c1ccccc1
Glutamate receptor 2 [9]
  EC50: 1980 µM

## CC1(C)CC(=O)C2=C(C1)OC(N)=C(C#N)C2c1ccc2ccccc2c1 (stereo unspecified)
[3]
  EC2: 1.6 µM
[1]
  EC50: 1.6 µM

## O=C(c1ccc2c(c1)OCCO2)N1CCCCC1
[10]
  EC50: 1600 µM

## O=C1c2cc3c(cc2OC2CCCN12)OCCO3 (stereo unspecified)
[10]
  EC50: 43.7 µM
Glutamate receptor 1
  EC50: 21 µM

## CC(=O)c1s/c(=N\c2ccc(OC(F)(F)F)cc2)n(CCO)c1C
[5]
  Activity: 15%
Glutamate receptor 2 [7]
  EC50: < 200 µM

## CC(C)S(=O)(=O)NCCCCCCCCNS(=O)(=O)C(C)C
Glutamate receptor 1
  EC50: 0.91 µM

## O=C(Cn1nc(C(F)(F)F)c2c1CCCC2)Nc1sc2c(c1C(=O)NCCc1ccccn1)CCCC2
Glutamate receptor 1
  EC50: < 10 µM

## O=S1(=O)N[C@H]2CCCN2c2ccc(Cl)cc21
[3]
  EC2: 60 µM

## CC(C)S(=O)(=O)N[C@@H]1CCC[C@@H]1c1ccc(Br)cc1
Glutamate receptor 4 [4]
  EC50: 0.52 µM
Glutamate receptor 2 [7]
  EC50: 0.52 µM

## O=C(c1ccc2nccnc2c1)N1CCCCC1 [CX516]
Glutamate receptor 4 [4]
  EC50: 156 µM and > 1000 µM
Rattus norvegicus
  Activity: 68%
[10]
  EC50: 95 µM

## O=C1CCCN1[C@H]1Cc2ccc(-n3cc(C4CC4)c(C(F)(F)F)n3)cc2C1
Glutamate receptor 2 [6]
  EC50: < 300 µM

## CC(CNS(=O)(=O)C(C)C)c1ccc(Br)cc1 (stereo unspecified)
Glutamate receptor 2 [11]
  inhibition: 26%

## CC(CNS(C)(=O)=O)c1ccc(C(C)(C)C)cc1 (stereo unspecified)
Glutamate receptor 4 [4]
  EC50: 1.2 µM

## CC(C)S(=O)(=O)NCCCCCCCCCNS(=O)(=O)C(C)C
Glutamate receptor 1
  EC50: 0.66 µM

## C[C@H](CNS(C)(=O)=O)c1ccc(-c2ccc([C@@H](C)CNS(C)(=O)=O)cc2)cc1
Glutamate receptor 4 [12]
  EC50: 0.87 µM

## O=C1CCCN1Cc1ccc(-n2nc(C(F)(F)F)c3c2COCC3)cc1F
Glutamate receptor 2 [6]
  EC50: < 300 µM

## CCN1CC[C@@H](c2ccc(-c3ccccc3)cc2)[C@H](NS(=O)(=O)C(C)C)C1
[8]
  EC50: < 10 µM
